Experimental data as given in US20250090435A1, “PRESERVATIVES FOR COSMETIC AND PHARMACEUTICAL COMPOSITIONS” (priority 2021, published 2025).

How the values were obtained:
[1] = system: Staphylococcus epidermidis - code souchier C′; assay: Roll-on deodorant challenge test (ISO 11930, odor-causing bacteria); type: cell-based; details: addition of 1% in natural roll-on deodorant
Description: The roll-on deodorant challenge tests shown below were conducted in accordance with ISO 11930 except that formulations were tested with bacteria Corynebacterium xerosis—code souchier M′ and Staphylococcus epidermidis—code souchier C′, which are two of the major odor-causing bacteria found in skin flora. The roll-on deodorant formulations used in the challenge tests are described in Tables 3 and 4 above. A non-preserved formulation without 3-(heptyloxy)propane-1,2-diol was used as a negative control, and the high concentration formulation with 1% 3-(heptyloxy)propane-1,2-diol by weight was tested.

[2] = Skin irritancy and skin sensitization
microbial growth = assay: BIOLUMIX assay to screen for preventing microbial growth; type: cell-based; details: 1% by weight in cleansing wipe, emulsion wipe, cream, shampoo, roll-on deodorant
From the text: Efficacy of the compositions in preventing microbial growth were screened with a BIOLUMIX assay. The BIOLUMIX assay produces a color change when carbon dioxide, indicative of microbial contamination, is detected in a sample. Non-preserved formulations without 3-(heptyloxy)propane-1,2-diol were used as negative controls, and formulations were used at particular percentages of 3-(heptyloxy)propane-1,2-diol by weight. Passing criteria is meeting criteria A in Table 5.

[3] = Thickening behavior study: viscosity of surfactant systems; type: physicochemical; details: for Viscosity: 12% AM, NaCl 1, pH 5.5, additive(s) at 1% w/w each; for Viscosity (change after each sequential addition) / Change in viscosity (symbol under Viscosity) / Viscosity (LV3/12 rpm): pH 5.5; for Change in viscosity (symbol under Viscosity) / Viscosity (LV3/12 rpm): 14% AM sodium coco sulfate/decyl glucoside system, additive(s) at 1% each
Description: Four formulations are shown in the four rightmost columns of Table 14 with ingredients indicated as a percentage by weight. The formulations differ in percentages of sodium chloride, 3-(heptyloxy)propane-1,2-diol, and 3-[(n-octyl)oxy]-1,2-propanediol.
A thickening behavior study was also performed in another basic surfactant system: Anionic/Non Ionic (APG—alkyl polyglucoside). Each column corresponds to a particular formulation with ingredients listed as a percentage by weight. The remainder was water, represented by Qs. % AM indicates % of active matter (e.g. % of dry surfactant).
(§1) A further thickening behavior study was performed in a different basic surfactant system: anionic/amphoteric (CAPB—Cocamidopropyl betaine). Each column corresponds to a particular formulation with ingredients listed as a percentage by weight. The remainder was water, represented by Qs. % AM indicates % of active matter (e.g. % of dry surfactant).
A further thickening behavior study was performed to compare sulfated surfactants and sulfate free surfactants. Each column corresponds to a particular formulation with ingredients listed as a percentage by weight. The remainder was water, represented by Qs. % AM indicates % of active matter (e.g. % of dry surfactant). Sodium chloride, 3-(heptyloxy)propane-1,2-diol, and 3-[(n-octyl)oxy]-1,2-propanediol were added sequentially with the change in viscosity measured after each addition and noted in Table 17 below.
as §1, with “to determine viscosity differences with and without salt (e.g. sodium chloride).” for “in a different basic surfactant system: anionic/amphoteric (CAPB—Cocamidopropyl betaine).”

[4] = Solubility in aqueous systems; type: physicochemical; details: compared to 3-(heptyloxy)propane-1,2-diol
[5] = Ammonium Lauryl Sulfate (ALS) 8/APG 4 system
[6] = Ammonium Lauryl Sulfate (ALS) 10/CAPB 2 system
[7] = Na Cocoyl Sulfate (SCS) 8/APG 4 system
[8] = Na Lauryl Ether Sulfate (SLES) 8/APG 4 system
[9] = Na Lauryl Ether Sulfate (SLES) 10/CAPB 2 system
[10] = Sulfate free: Na Cocoyl Glutamate 8/Decyl Glucoside 4, 12% AM, added sequentially NaCl 2, 3-(heptyloxy)propane-1,2-diol 1, 3-[(n-octyl)oxy]-1,2-propanediol 1
[11] = Sulfate free: Na Cocoyl Glycinate 8/Decyl Glucoside 4, 12% AM, added sequentially NaCl 2, 3-(heptyloxy)propane-1,2-diol 1, 3-[(n-octyl)oxy]-1,2-propanediol 1
[12] = Sulfate free: Na Lauroyl Sarcosinate 8/Decyl Glucoside 4, 12% AM, added sequentially NaCl 2, 3-(heptyloxy)propane-1,2-diol 1, 3-[(n-octyl)oxy]-1,2-propanediol 1
[13] = Sulfate free: Na Lauryl Glucose Carboxylate 8/Decyl Glucoside 4, 12% AM, added sequentially NaCl 2, 3-(heptyloxy)propane-1,2-diol 1, 3-[(n-octyl)oxy]-1,2-propanediol 1
[14] = Sulfate free: Na Lauryl Sulfoacetate 8/Decyl Glucoside 4, 12% AM, added sequentially NaCl 2, 3-(heptyloxy)propane-1,2-diol 1, 3-[(n-octyl)oxy]-1,2-propanediol 1
[15] = Sulfated: Ammonium Lauryl Sulfate 8/Decyl Glucoside 4, 12% AM, added sequentially NaCl 1, 3-(heptyloxy)propane-1,2-diol 1, 3-[(n-octyl)oxy]-1,2-propanediol 1
[16] = Sulfated: Na Coco Sulfate 8/Decyl Glucoside 4, 12% AM, added sequentially NaCl 1, 3-(heptyloxy)propane-1,2-diol 1, 3-[(n-octyl)oxy]-1,2-propanediol 1
[17] = Sulfated: Na Lauryl Ether Sulfate 8/Decyl Glucoside 4, 12% AM, added sequentially NaCl 1, 3-(heptyloxy)propane-1,2-diol 1, 3-[(n-octyl)oxy]-1,2-propanediol 1
[18] = Sulfated: Na Lauryl Sulfate 8/Decyl Glucoside 4, 12% AM, added sequentially NaCl 1, 3-(heptyloxy)propane-1,2-diol 1, 3-[(n-octyl)oxy]-1,2-propanediol 1

| Viscosity [3, 5] [cps] | Viscosity [3, 6] [cps] | Viscosity [3, 7] [cps] | Viscosity [3, 8] [cps] | Viscosity [3, 9] [cps] | Viscosity (change after each sequential addition) [3, 10] | Viscosity (change after each sequential addition) [3, 11] | Viscosity (change after each sequential addition) [3, 12] | Viscosity (change after each sequential addition) [3, 13] | Viscosity (change after each sequential addition) [3, 14] | Viscosity (change after each sequential addition) [3, 15] | Viscosity (change after each sequential addition) [3, 16] | Viscosity (change after each sequential addition) [3, 17] | Viscosity (change after each sequential addition) [3, 18] | SMILES | Change in viscosity (symbol under Viscosity) ([3]; With 1% NaCl) | Viscosity (LV3/12 rpm) ([3]; With 1% NaCl) [cps] | also measured |
| --- | --- | --- | --- | --- | --- | --- | --- | --- | --- | --- | --- | --- | --- | --- | --- | --- | --- |
| 260 | 2500 | 130 | 50 | 200 | ≈ | ≈ | ≈ | ≈ | ≈ | ↑+ | ↑+ | ↑+ | ↑ | CCCCCCCOCC(O)CO (stereo not drawn) [3-(heptyloxy)propane-1,2-diol] | ↑+ | 1600 | speed of logarithmic reduction of bacteria [1]: increases logarithmic reduction of bacteria such as Staphylococcus faster; skin irritancy [2]: reduced/no skin irritancy; skin sensitization [2]: non-skin sensitizer; microbial growth in products (microbial growth): successfully blocks microbial growth; Change in viscosity (symbol under Viscosity) ([3]; Without Salt): ≈; Viscosity (LV3/12 rpm) ([3]; Without Salt, base without additives 70 cps): 80 cps |
| 550 | 3250 | 370 | 50 | 700 | ≈ | ≈ | ≈ | ≈ | ≈ | ↑++ | ↑++ | ↑++ | ↑++ | CCCCCCCCOCC(O)CO (stereo not drawn) [3-[(n-octyl)oxy]-1,2-propanediol] |  |  | solubility in aqueous systems [4]: lower solubility in aqueous systems |
|  |  |  |  |  |  |  |  |  |  |  |  |  |  | [Cl-].[Na+] [Sodium Chloride] | ↑ | 280 |  |

| SMILES | Viscosity [3, 5] [cps] | Viscosity [3, 6] [cps] | Viscosity [3, 7] [cps] | Viscosity [3, 8] [cps] | Viscosity [3, 9] [cps] | Viscosity (change after each sequential addition) [3, 10] | Viscosity (change after each sequential addition) [3, 11] | Viscosity (change after each sequential addition) [3, 12] | Viscosity (change after each sequential addition) [3, 13] | Viscosity (change after each sequential addition) [3, 14] | Viscosity (change after each sequential addition) [3, 15] | Viscosity (change after each sequential addition) [3, 16] | Viscosity (change after each sequential addition) [3, 17] | Viscosity (change after each sequential addition) [3, 18] | Change in viscosity (symbol under Viscosity) ([3]; With 1% NaCl) | Viscosity (LV3/12 rpm) ([3]; With 1% NaCl) [cps] | also measured |
| --- | --- | --- | --- | --- | --- | --- | --- | --- | --- | --- | --- | --- | --- | --- | --- | --- | --- |
| [Cl-].[Na+] [NaCl] |  |  |  |  |  | ≈ | ↑ | ≈ | ≈ | ≈ | ↑ | ↑ | ↑ | ↑ |  |  |  |
